# Data taken from patent US20080249174A1, “Animal Model for Studying Atherosclerotic Lesions” (THE RESEARCH FOUNDATION OF STATE UNIVERSITY OF NEW YORK, priority 2005, published 2008).
# Marks after values point to notes of the source that are not given here.
# Experiments:
# apoE KO mice [1] = test: Plasma sphingolipid analysis by mass spectrometry after myriocin administration; type: in vivo, mouse; conditions: for Plasma C14Cer / Plasma C16Cer / Plasma C18:1Cer / Plasma C18Cer / Plasma C20Cer / Plasma C24:1Cer / Plasma C24Cer / Plasma DHSph / Plasma DHSph-1P / Plasma S1P / Plasma Sph: myriocin 0.3 mg/kg i.p. 8 weeks, n=7
# Description: Eight-week-old apoE KO micewere purchased from The Jackson Laboratory (Bar Harbor, Me.). Myriocin (0.3 mg/kg) (Biomol Research Laboratories Inc.) or phosphate buffered saline was injected intraperitoneally every other day for 8 weeks. The animals were on Purina Rodent Chow (catalog number 5001) or a high fat, high cholesterol diet (20% milk fat and 0.15% cholesterol; Harlan Teklad, Madison, Wis.).
# Plasma sphingosinebases, sphingoid base-1-phosphates, and ceramide species were performed on a Thermo Finnigan TSQ 7000 triple quadrupole mass spectrometer operating in a multiple reaction monitoring, positive ionization mode at the Department of Biochemistry and Molecular Biology, Medical University of South Carolina, on a fee-for-service basis. Briefly, 250 μl of mouse plasma was fortified with the internal standards (IC17 base D-erythro-sphingosine (17C-Sph), C17 sphingosine-1-phosphate (17C—S1P), N-palmitoyl-D-erythro-C13 sphingosine (13C-Cer), and heptadecanoyl-D-erythro-sphingosine (C17-Cer)) and extracted with ethyl acetate/iso-propanol/water (60:30:10) (v/v) solvent system. After evaporation and reconstitution in 100 μl of methanol, samples were injected onto the Surveyor/TSQ 7000 liquid chromatography/mass spectrometry system, and gradient was eluted from a BDSHypersil C8, 150×3.2-mm, 3-μm particle size column with a 1 mM methanolic ammonium formate, 2 mM aqueous ammonium formate mobile phase system. Peaks corresponding to the target analytes and internal standards were collected and processed using the Xcalibur software system. Quantitative analysis was based on the calibration curves generated by spiking an artificial matrix with the known amounts of the target analyte synthetic standards and an equal amount of the internal standards. The target analyte/internal standard peak area ratios were plotted against analyte concentration. The target analyte/internal standard peak area ratios from the samples were similarly normalized to their respective internal standards and compared with the calibration curves using a linear regression model.
# apoE KO mice [2] = test: Atherosclerotic lesions: aorta root assay and en face assay; type: in vivo, mouse; conditions: 2 months of myriocin administration, p<0.01; for reduction in mean whole aortic lesion areas compared with controls: en face; for reduction in mean proximal aortic lesion areas compared with controls: root assay
# Description: This set of pictures is representative of seven sets. FIGS. 8B and 8C depict quantification of atherosclerotic lesions in the proximal aorta by root assay in mice fed a chow diet (FIG. 8B) or a high fat, high cholesterol diet (FIG. 8C). The procedure for root assay was described previously (JBC 15). FIGS. 8D and 8E depict quantification of atherosclerotic lesions in whole aorta by en face analysis in mice fed a chow diet (FIG. 8D) or a high fat, high cholesterol diet (FIG. 8E). The procedure for en face analysis was described previously (JBC 16). Values are mean ±S.D. *, p<0.001; n=7.
# At the end of the myriocin treatment period, the mice were sacrificed, and the hearts and proximal aortas as well as the whole aortas were removed, dissected, and photographed. An aorta root assay and an en face assay were performed as described previously (JBC 15, 16).
# [3] = high fat, high cholesterol diet
smiles,measurement,setting,value
"CCCCCCC(=O)CCCCCC/C=C/C[C@@H](O)[C@H](O)[C@@](N)(CO)C(=O)O [Myriocin, myriocin]","plasma Cer, change after myriocin treatment",apoE KO mice [1]; chow diet,significantly decreased
same,"plasma S1P, change after myriocin treatment",apoE KO mice [1]; chow diet,significantly decreased
same,"plasma Sph, change after myriocin treatment",apoE KO mice [1]; chow diet,significantly decreased
same,Plasma C14Cer,apoE KO mice [1]; chow diet,12 ± 2^a nM
same,Plasma C16Cer,apoE KO mice [1]; chow diet,11 ± 3^a nM
same,Plasma C18:1Cer,apoE KO mice [1]; chow diet,2 ± 1^a nM
same,Plasma C18Cer,apoE KO mice [1]; chow diet,51 ± 8^a nM
same,Plasma C20Cer,apoE KO mice [1]; chow diet,35 ± 9^a nM
same,Plasma C24:1Cer,apoE KO mice [1]; chow diet,854 ± 144^a nM
same,Plasma C24Cer,apoE KO mice [1]; chow diet,1321 ± 22^a nM
same,Plasma DHSph,apoE KO mice [1]; chow diet,30 ± 3 nM
same,Plasma DHSph-1P,apoE KO mice [1]; chow diet,9 ± 5^a nM
same,Plasma S1P,apoE KO mice [1]; chow diet,58 ± 9^a nM
same,Plasma Sph,apoE KO mice [1]; chow diet,127 ± 8^a nM
same,Plasma S1P,"apoE KO mice [1]; chow diet, listed as myriocin",< 100 nM
same,Plasma C14Cer,apoE KO mice [1]; high fat diet,20 ± 2 nM
same,Plasma C16Cer,apoE KO mice [1]; high fat diet,12 ± 6^a nM
same,Plasma C18:1Cer,apoE KO mice [1]; high fat diet,9 ± 1^a nM
same,Plasma C18Cer,apoE KO mice [1]; high fat diet,36 ± 14^a nM
same,Plasma C20Cer,apoE KO mice [1]; high fat diet,45 ± 11^a nM
same,Plasma C24:1Cer,apoE KO mice [1]; high fat diet,1009 ± 134^a nM
same,Plasma C24Cer,apoE KO mice [1]; high fat diet,1708 ± 426^a nM
same,Plasma DHSph,apoE KO mice [1]; high fat diet,20 ± 1^a nM
same,Plasma DHSph-1P,apoE KO mice [1]; high fat diet,10 ± 2^a nM
same,Plasma S1P,apoE KO mice [1]; high fat diet,42 ± 19^a nM
same,Plasma Sph,apoE KO mice [1]; high fat diet,114 ± 19^a nM
same,"plasma Cer, change after myriocin treatment",apoE KO mice [1]; [3],dramatically decreased
same,"plasma S1P, change after myriocin treatment",apoE KO mice [1]; [3],dramatically decreased
same,"plasma Sph, change after myriocin treatment",apoE KO mice [1]; [3],dramatically decreased
same,reduction in mean whole aortic lesion areas compared with controls,apoE KO mice [2]; Western type diet,37%
same,reduction in mean proximal aortic lesion areas compared with controls,apoE KO mice [2]; Western type diet,39%
same,reduction in mean whole aortic lesion areas compared with controls,apoE KO mice [2]; chow diet,36%
same,reduction in mean proximal aortic lesion areas compared with controls,apoE KO mice [2]; chow diet,42%
